Results reported in US7378375B1, “Substituted pyridine herbicides” (Syngenta Crop Protection, Inc., priority 2000, dated 2008).

System: Monocotyledonous and dicotyledonous test plants
Assay: Post-emergence herbicidal action, greenhouse pot test, sprayed at the 2- to 3-leaf stage, 9-level rating after 2 to 3 weeks
Format: in vivo
Design: key: 9-level scale: 1 = complete damage, 9 = no effect
Settings: 250 g/ha, rated after 2 to 3 weeks, 9-level scale
Protocol: Post-Emergence Herbicidal Action
Monocotyledonous and dicotyledonous test plants are grown in standard soil in pots. At the 2- to 3-leaf stage of the test plants, the test substances are sprayed at optimum dosage (500 l of water/ha) as an aqueous suspension (prepared from a wettable powder (example F3, b) according to WO 97/34485) or emulsion (prepared from an emulsion concentrate (example F1, c) according to WO 97/34485). The test plants are then grown further under optimum conditions in a greenhouse.
After a test period of 2 to 3 weeks, the test is evaluated using a 9-level scale of rating (1=complete damage, 9=no effect). Ratings of 1 to 4 (in particular 1 to 3) mean good to very good herbicidal action.

SMILES	Post-emergence action rating, Abutilon	Post-emergence action rating, Amaranth	Post-emergence action rating, Chenop.	Post-emergence action rating, Digitaria	Post-emergence action rating, Echino.	Post-emergence action rating, Ipopur.	Post-emergence action rating, Panicum	Post-emergence action rating, Xanth.
CC(C)(C)C(=O)OC1=C(C(=O)c2ccc(C(F)(F)F)nc2COCCO)C(=O)C2CCC1C2 (centres unmarked) [A856-B112]	2	3	1	3	5	3	3	3
O=C(C1=C(O)C2CCC(C2)C1=O)c1ccc(C(F)(F)F)nc1COCCOCOCc1ccccc1 (centres unmarked) [A857-B52]	2	2	1	2	2	2	2	2
COCCOCCOCCOCc1nc(C(F)(F)F)ccc1C(=O)C1=C(O)C2CCC(C2)C1=O (centres unmarked) [A858-B52]	2	1	2	2	2	2	2	2
CCOC(C)OCCOCc1nc(C(F)(F)F)ccc1C(=O)C1=C(O)C2CCC(C2)C1=O (centres unmarked) [A859-B52]	2	2	1	2	2	2	1	2
CCCCCCCC(=O)OCCOCc1nc(C(F)(F)F)ccc1C(=O)C1=C(O)C2CCC(C2)C1=O (centres unmarked) [A860-B52]	2	2	1	1	2	2	2	2
CC(=O)OCCOCc1nc(C(F)(F)F)ccc1C(=O)C1=C(O)C2CCC(C2)C1=O (centres unmarked) [A861-B52]	3	2	1	3	5	2	2	2
CS(=O)(=O)OCCOCc1nc(C(F)(F)F)ccc1C(=O)C1=C(O)C2CCC(C2)C1=O (centres unmarked) [A862-B52]	3	2	1	2	3	5	2	2
O=C(C1=C(O)C2CCC(C2)C1=O)c1ccc(C(F)(F)F)nc1COCCCOCc1ccccc1 (centres unmarked) [A863-B52]	2	2	1	2	3	3	2	2
CN(Cc1nc(C(F)(F)F)ccc1C(=O)C1=C(O)C2CCC(C2)C1=O)S(C)(=O)=O (centres unmarked) [A864-B52]	2	2	1	2	2	2	2	2
CN(Cc1nc(C(F)(F)F)ccc1C(=O)c1cnn(C)c1O)S(C)(=O)=O [A864-C5]	2	1	1	2	2	2	1	2
